Assay results from patent US20030055046A1, “Novel pyrido cyclohexenyl phenyl carboxamides tocolytic oxytocin receptor antagonists” (Wyeth, priority 2001, published 2003).
Where a name gives a salt, the structure may show the parent alone.

Molecular target: T1, human oxytocin receptor (Homo sapiens, UniProt P30559)
T1 construct: host or cells: CHO cells, stably transfected (pcDNA3.1 vector)
T1 sequence (P30559 1-389): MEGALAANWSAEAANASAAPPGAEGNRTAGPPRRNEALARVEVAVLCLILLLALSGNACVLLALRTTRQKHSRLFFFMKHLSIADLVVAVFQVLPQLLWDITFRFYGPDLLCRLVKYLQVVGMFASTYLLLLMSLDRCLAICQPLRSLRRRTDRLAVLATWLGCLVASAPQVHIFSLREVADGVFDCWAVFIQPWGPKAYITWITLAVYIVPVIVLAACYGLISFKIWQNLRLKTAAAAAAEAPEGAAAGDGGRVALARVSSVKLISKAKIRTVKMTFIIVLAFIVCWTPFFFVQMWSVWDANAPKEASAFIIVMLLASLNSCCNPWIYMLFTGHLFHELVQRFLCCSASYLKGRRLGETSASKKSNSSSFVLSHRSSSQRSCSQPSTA
Test: Oxytocin binding in CHO cell membranes expressing human oxytocin receptors
Conditions: 100 nM, [3H]oxytocin
Description: Oxytocin binding in Chinese Hamster Ovary cell membranes expressing human oxytocin receptors
Chinese Hamster Ovary (CHO) cells stably transfected with the human oxytocin (cf. Tanizawa et al., U.S. Pat. No. 5,466,584 (1995) to Rohto Pharmaceutical Co. Ltd., Osaka, Japan) were obtained from M. Thibonnier, Case Western Reserve University School of Medicine, Cleveland, Ohio.
A. Passaging and Amplification of Cells:
CHO cells transfected with the human oxytocin receptors obtained from M. Thibonnier (pcDNA3.1 vector) are allowed to grow to confluency (approx. >90%) in T-150 flasks under sterile conditions, in a cell culture medium consisting of F-12 Nutrient Mixture (HAM) with L-glutamine (Gibco Cat.# 11765-054) containing 15 mM HEPES (Gibco Cat.# 15630-080), 1% antibiotic/antimycotic (add 5 mL 100×, Gibco Cat.# 15240-062 per 500 mL F-12), 400 μg/mL of Geneticin (add 4 mL of 50 mg/mL per 500 mL F-12) and 10% Fetal Bovine Serum (Qualified, heat inactivated, Gibco Cat.# 16140-063). The medium is removed by aspiration and the cells are washed with 10 mL of Hank's Balanced Salt solution (Gibco Cat.# 14175-095). The salt solution is removed by aspiration and the cells trypsinized with 5 mL of trypsin-EDTA (0.05% trypsin, 0.53 mM EDTA-4Na, Gibco Cat.# 25300-070) for 1 min The trypsin is removed by aspiration and the cells dislodged by tapping. Cell Culture medium (e.g. 30 mL for 1:30 split) is immediately added and mixed well to inactivate trypsin. 1 mL of detached cells is added to new culture flasks containing fresh Cell Culture medium (e.g. into 25 mL per T-150 flask), and mixed gently. The cells are incubated at 37° C. in 5% CO2. The medium is changed at 3 to 4 days interval (or as appropriate). The cells grow to confluency (approx. >75%-95%) within 7-8 days. All steps are done under sterile conditions.
The cells are washed twice gently with Hank's Balanced Salt solution (eg, use 10 mL per T-150 flask). The excess solution is removed and the cells bathed for 15-30 min. in an enzyme-free Cell Dissociation Buffer (eg, use 8 mL Hank's Based, Gibco Cat.# 13150-016 per T-150 flask) until cells are loosened. The contents are transferred to centrifuge tubes (50 mL size) kept in ice bath. All subsequent steps are done at 4° C. The tubes are centrifuged at 300×g for 15 min (1380 rpm on SORVAL, Model RT6000D, using rotor for 50 mL tubes). The supernatant is discarded and the cells suspended in homogenizing buffer (10 mM Tris-HCl containing 0.25 M sucrose and 1 mM EDTA, pH 7.4) ensuring that the volume of the buffer is about ten times the volume of the cell pellet. The cells are pooled into a centrifuge tube (50 mL) and homogenized with a Polytron at setting 6 for 10 sec. The homogenate is transferred into a Potter-Elvjehm homogenizer and homogenized with 3 strokes. The homogenate is centrifuged at 1500×g for 10 min at 4° C. (3100 rpm using SORVAL, model RT6000D, using rotor for 50 mL tubes). The pellet is discarded. The supernatant is centrifuged at 100,000×g for 60 min. at 4° C. (Beckman L8-80M ultracentrifuge; spin at 37,500 rpm with rotor type 70 Ti for 50 mL tubes; 38,000 rpm with type 80Ti for 15 mL tubes; or 35,800 rpm with rotor type 45Ti). The supernatant is discarded and the pellet suspended in 3 to 4 mL of Tris buffer (50 mM TRIS-HCl, pH 7.4). The protein content is estimated by the Bradford or Lowry method. The volume of the membrane suspension is adjusted with the membrane buffer (50 mM Tris-HCl containing 0.1 % BSA and 0.1 mM PMSF) to give 3.0 mg/mL (or as appropriate) of protein. The membranes are aliquoted and stored at −70° C.
C. Radioligand Binding Assay:
In wells of a 96-well format microtiter plate, is added 90, 110 or 130 μL (to make up a final volume of 200 μL) of assay buffer containing 50 mM of Tris-HCl (pH 7.4), […], 1 mg % aprotinin, 1 mg % leupeptin, 2 mg % 1,10-phenanthroline, 10 mg % trypsin inhibitor, and 0.1 mM PMSF. […]

OT % inhibition @ 100 nM	Compound
95%	Cc1cc(C(=O)N2Cc3ccc(C(=O)N(C)CCc4ccncc4)n3Cc3ccccc32)ccc1C1=CCCCC1 [Example 13, 10-[4-(1-Cyclohex-1-en-1-yl)-3-methylbenzoyl]-N-methyl-N-[2-(4-pyridinyl)ethyl]-10,11-dihydro-5H-pyrrolo[2,1-c][1,4]benzodiazepine-3-carboxamide]
42%	Cc1cc(C(=O)N2Cc3ccc(C(=O)NCCc4ccccn4)n3Cc3ccccc32)ccc1C1=CCCCC1 [Example 7, 10-[4-(1-Cyclohex-1-en-1-yl)-3-methylbenzoyl]-N-[2-(2-pyridinyl)ethyl]-10,11-pyrrolo[2,1-c][1,4]benzodiazepine-3-carboxamide]
45%	Cc1cc(C(=O)N2Cc3ccc(C(=O)NCc4ccncc4)n3Cc3ccccc32)ccc1C1=CCCCC1 [Example 10, 10-[4-(1-Cyclohex-1-en-1-yl)-3-methylbenzoyl]-N-(4-pyridinylmethyl)-10,11-dihydro-5H-pyrrolo[2,1-c][1,4]benzodiazepine-3-carboxamide]
37%	Cc1cc(C(=O)N2Cc3ccc(C(=O)N4CCN(c5ccccn5)CC4)n3Cc3ccccc32)ccc1C1=CCCCC1 [Example 9, {10-[4-(1-Cyclohex-1-en-1-yl)-3-methylbenzoyl]-10,11-dihydro-5H-pyrrolo[2,1-c][1,4]benzodiazepin-3-yl}[4-(2-pyridinyl)-1-piperazinyl]methanone]
34%	Cc1cc(C(=O)N2Cc3ccc(C(=O)NCc4ccccn4)n3Cc3ccccc32)ccc1C1=CCCCC1 [Example 5, 10-[4-(1-Cyclohex-1-en-1-yl)-3-methylbenzoyl]-N-(2-pyridinylmethyl)-10,11-dihydro-5H-pyrrolo[2,1-c][1,4]benzodiazepine-3-carboxamide]
31%	Cc1cc(C(=O)N2Cc3ccc(C(=O)NCc4cccnc4)n3Cc3ccccc32)ccc1C1=CCCCC1 [Example 6, 10-[4-(1-Cyclohex-1-en-1-yl)-3-methylbenzoyl]-N-(3-pyridinylmethyl)-10,11-dihydro-5H-pyrrolo[2,1-c][1 ,4]benzodiazepine-3-carboxamide]
84%	Cc1cc(C(=O)N2Cc3ccc(C(=O)N(C)CCc4ccccn4)n3Cc3ccccc32)ccc1C1=CCCCC1 [Example 8, 10-[4-(1-Cyclohex-1-en-1-yl)-3-methylbenzoyl]-N-methyl-N-[2-(2-pyridinyl)ethyl]-10,11-dihydro-5H-pyrrolo[2,1-c][1 ,4]benzodiazepine-3-carboxamide]
98%	Cc1cc(C(=O)N2Cc3ccc(C(=O)N4CCN(c5ccncc5)CC4)n3Cc3ccccc32)ccc1C1=CCCCC1 [Example 12, {10-[4-(1-Cyclohex-1-en-1-yl)-3-methylbenzoyl]-10,11-dihydro-5H-pyrrolo[2,1--c][1,4]benzodiazepin-3-yl}[4-(4-pyridinyl)-1-piperazinyl]methanone]
87%	Cc1cc(C(=O)N2Cc3ccc(C(=O)N(C)Cc4cccnc4)n3Cc3ccccc32)ccc1C1=CCCCC1 [Example 11, 10-[4-(1-Cyclohex-1-en-1-yl)-3-methylbenzoyl]-N-methyl-N-(3-pyridinylmethyl)-10,11-dihydro-5H-pyrrolo[2,1-c][1,4]benzodiazepine-3-carboxamide]

Compound	OT % inhibition @ 100 nM
CC1=C(c2ccc(C(=O)N3Cc4ccc(C(=O)N(C)Cc5cccnc5)n4Cc4ccccc43)cc2C)CCC[C@H]1O.O=C(O)C(O)C(O)C(=O)O [Example 4, 10-[4-((3R)-3-Hydroxy-2-methyl-cyclohex-1-en-1-yl)-3-methyl-benzoyl]-10,11-dihydro-5H-pyrrolo[2,1-c][1,4]benzodiazepine-3-carboxylic acid methyl-pyridin-3-yl methyl-amide L-(+)-tartaric acid salt]	99%
CC1=C(c2ccc(C(=O)N3Cc4ccc(C(=O)N(C)Cc5cccnc5)n4Cc4ccccc43)cc2C)CCC[C@H]1O [Example 3, 10-[4-((3R)-3-Hydroxy-2-methyl-cyclohex-1-en-1-yl)-3-methyl-benzoyl]-10,11-dihydro-5H-pyrrolo[2,1-c][1,4]benzodiazepine-3-carboxylic acid methyl-pyridin-3-yl methyl-amide]	96%

Same assay, conditions: [3H]oxytocin, value in parentheses, read-out: OT IC50

IC50	Compound
3.17 nM	COc1cc(C2=CCCCC2)c(Cl)cc1C(=O)N1Cc2ccc(C(=O)N(C)Cc3cccnc3)n2Cc2ccccc21 [Example 2, 10-(5-Chloro-4-cyclohex-1-en-1-yl-2-methoxybenzoyl)-N-methyl-N-(pyridin-3-ylmethyl)-10,11-dihydro-5H-pyrrolo[2,1-c][1,4]benzodiazepine-3-carboxamide L-(+)-tartaric acid salt hemihydrate]
4.47 nM	COc1cc(C2=CCCCC2)c(Cl)cc1C(=O)N1Cc2ccc(C(=O)N(C)Cc3cccnc3)n2Cc2ccccc21 [Example 1, 10-(5-Chloro-4-cyclohex-1-en-1-yl-2-me3thoxybenzoyl)-N-methyl-N-(pyridin-3-ylmethyl)-10,11-dihydro-5H-pyrrolo [2,1-c][1,4]benzodiazepine-3-carboxamide]
